Results taken from patent US20220127297A1, “Novel Antibacterial 3"-Derivatives Of 4,6-Disubstituted 2,5-Dideoxystreptamine Aminoglycoside Antibiotics” (AGILeBiotics B.V., priority 2018, published 2022).
Values after ≈ are worked out from the molar mass of the structure shown. Where two headings read alike, the source gives them in different places.

Test system: E. faecalis DSM 2570
Test: MIC 50, broth micro-dilution, DSM strains
Assay type: cell-based, Enterococcus faecalis
Source text: 3.2 Against Selected Bacteria of the ESKAPE Panel and Enterococcus faecalis (DSM Strains)
Tested reference compounds. Amikacin sulfate (Cat. No. 01693, Chem-Impex), Gentamicin sulfate (Cat. No. G4918, Sigma Aldrich).
Microbial strains. Enterococcus faecalis DSM 2570, Klebsiella pneumoniae DSM 26371, Acinetobacter baumannii DSM 105126, Enterobacter cloacae 3MRGN (clinical bronchial aspirate isolate).
Culture media and equipment. BBL™ Mueller Hinton Broth 2 (Lot. BCBW1143, Cat. No. 70192, Sigma); Trypcase Soy Blood-agar plates (Cat. No. 43001, Biomérieux); Cryoinstant (contains 15% glycerol; Cat. No. 822070ZA, VWR International); GasPak™ EZ Standard Incubation Container (Cat. No. 260671, Becton Dickinson); GasPak™ EZ Campy Container System Sachets (Cat. No. 260680, Becton Dickinson); 96-well deep well plate, 1 mL (Cat. No. 0030506.200, Eppendorf); Plate lid (Cat. No. 0030131.525, Eppendorf); 96-well plate, F-bottom (Cat. No. 260860, Nunc); Incubator (Sartorius Certomat BS-1); Laminar flow (Heraeus HS12); UV/VIS meter (Perkin Elmer Lambda Bio+); Platereader (Tecan Infinite M200 Pro).
Compound preparation. Compounds were prepared in MH2 media at a concentration of 5 mM and stored at 4° C. For testing, solutions of 128 μM were prepared in MH2, for tests against E. faecalis a solution of 512 μM was prepared. Out of these working solutions, 400 μL was transferred to wells in the first column of 96-well deep well plates. Each compound was transferred in triplicate. Plates were previously filled with 200 μL of MH2 media in all wells except for the wells in the first column. After compound and antibiotic addition, the compounds were serial two-fold diluted by transferring 200 μL from the first to the second column, then from the second to the third column and so on. Finally, 200 μL was removed from the last column.
Inoculum preparation. Microorganisms used were all revived from 15% glycerol storage in Croinstant tubes at −28° C. by plating them on blood agar plates. A. baumanni, and E. cloacae were grown aerobically at 37° C., E. faecalis was grown microaerophilically at 37° C., and K. pneumoniae was grown aerobically at 37° C. Plates were stored at 4° C. for up to two weeks, after which new plates were prepared from −28° C. A single colony was inoculated in MH2 media and grown at 37° C. and 200 rpm to an optical density (measured by UV/Vis spectroscopy) of 0.6-0.8 at 600 nm. Out of these suspensions, actual inoculums were prepared by diluting them to an optical density of 0.1 in MH2 media. From these inoculums, 200 μL was transferred to each well, resulting in a final compound concentration range of 64 μM-31.3 nM for, K. pneumoniae, A. baumanni, and E. cloacae, and 256 μM-125 nM for E. faecalis. Plates inoculated with E. faecalis were placed inside a GasPak™ Container System with GasPak™ Campy Container System sachets. All plates were incubated at 200 rpm for 18 h under the microorganism culturing conditions mentioned above.
MIC determination. After 18 h of growth, 200 μL was transferred to a 96-well F-bottom plate. The optical density was determined by a plate reader at 600 nm, with 10 s shaking before reading. Triplicate measurements were averaged, and a growth curve was plotted in Excel. The first column in which the growth reached half the value of maximum growth was determined as the MIC50 value for that particular compound.
MIC50. The MIC50 of a compound was assigned at which the bacterial growth reached half the value of maximum growth.

[1] = Enterococcus faecalis, DSM2570, read-out: MIC 50

## NCC[C@H](O)C(=O)N[C@@H]1C[C@H](N)[C@@H](O[C@H]2O[C@H](CN)[C@@H](O)[C@@H](O)[C@H]2O)[C@H](O)[C@H]1O[C@H]1O[C@H](CO)[C@@H](O)[C@H](N)[C@H]1O [ABX3002, 3′Epi-KanaA-AHB]
  MIC50: 128 µM (≈ 75 µg/mL)

## N=C(N)NC1[C@@H](O)C(OC2[C@@H](F)[C@H](O[C@H]3OC(CN)[C@@H](O)[C@H](O)C3O)C(N)C[C@H]2NC(=O)[C@@H](O)CCN)O[C@H](CO)[C@H]1O (stereo partly drawn) [ABX3003, 3′epi-KanaA-AHB-F-Gua]
[1]
  MIC50: 64 µM (≈ 40.3 µg/mL)

## NCCC(O)C(=O)NC1CC(N)C(OC2OC(CN)C(O)C(O)C2O)C(F)C1OC1OC(CO)C(O)C(N)C1O (stereo not drawn) [ABX3005, 3′Epi-KanaA-AHB-F]
  MIC50: 64 µM (≈ 37.6 µg/mL)

## NCCC(O)C(=O)NC1CC(N)C(OC2OC(CN)C(O)C(O)C2N)C(O)C1OC1OC(CO)C(O)C(N)C1O (stereo not drawn) [ABX4001, KanaB-AHB]
  MIC50: 32 to 64 µM

## NCC[C@H](O)C(=O)N[C@@H]1CC(N)[C@@H](O[C@H]2OC(CN)[C@@H](O)[C@@H](O)C2N)[C@H](O)C1OC1O[C@H](CO)[C@@H](O)C(N)[C@H]1O (stereo partly drawn) [ABX4002, 3′Epi-KanaB-AHB]
  MIC50: 16 to 32 µM

## NCC[C@H](O)C(=O)N[C@@H]1CC(N)[C@@H](O[C@H]2OC(CN)[C@@H](O)[C@@H](O)C2N)[C@H](F)C1OC1O[C@H](CO)[C@@H](O)C(N)[C@H]1O (stereo partly drawn) [ABX4003, 3′Epi-KanaB-AHB-F]
  MIC50: 64 µM (≈ 37.5 µg/mL)

## N=C(N)NC1[C@@H](O)C(OC2[C@@H](F)[C@H](O[C@H]3OC(CN)[C@@H](O)[C@H](O)C3N)C(N)C[C@H]2NC(=O)[C@@H](O)CCN)O[C@H](CO)[C@H]1O (stereo partly drawn) [ABX4004, 3′epi-KanaB-AHB-F-Gua]
  MIC50: 16 to 32 µM

## N=C(N)N[C@@H]1[C@@H](O)[C@@H](O[C@@H]2[C@@H](O)[C@H](O[C@H]3O[C@H](CN)[C@@H](O)[C@@H](O)[C@H]3N)[C@@H](N)C[C@H]2NC(=O)[C@@H](O)CCN)O[C@H](CO)[C@H]1O [ABX4005, 3′Epi-KanaB-AHB-Gua]
  MIC50: 32 to 64 µM

## N=C(N)NC1[C@@H](O)C(OC2[C@@H](F)[C@H](O[C@H]3OC(CN)[C@@H](O)[C@H](O)C3N)C(N)C[C@H]2NC(=O)[C@@H](O)CCN)O[C@H](CO)[C@H]1O (stereo partly drawn) [ABX4006, KanaB-AHB-F-Gua]
[1]
  MIC50: 16 to 32 µM (≈ 10.1 to 20.1 µg/mL)

## NCCC(O)C(=O)NC1CC(N)C(OC2OC(CN)C(O)C(O)C2N)C(F)C1OC1OC(CO)C(O)C(N)C1O (stereo not drawn) [ABX4007, KanaB-AHB-F]
  MIC50: 32 to 64 µM

## N=C(N)NC1[C@@H](O)C(OC2[C@@H](O)[C@H](O[C@H]3OC(CN)[C@@H](O)[C@H](O)C3N)C(N)C[C@H]2NC(=O)[C@@H](O)CCN)O[C@H](CO)[C@H]1O (stereo partly drawn) [ABX4009, KanaB-AHB-Gua]
  MIC50: 64 to 128 µM

## NCC[C@H](O)C(=O)N[C@@H]1CC(N)[C@@H](O[C@H]2OC(CN)[C@@H](O)CC2N)[C@H](O)C1OC1O[C@H](CO)[C@@H](O)C(N)[C@H]1O (stereo partly drawn) [ABX5004, Tobra-AHB]
  MIC50: 32 µM (≈ 18.2 µg/mL)

## N=C(N)NC1[C@@H](O)C(OC2[C@@H](O)[C@H](O[C@H]3OC(CN)[C@@H](O)CC3N)C(N)C[C@H]2NC(=O)[C@@H](O)CCN)O[C@H](CO)[C@H]1O (stereo partly drawn) [ABX5005, Tobra-AHB-Gua]
  MIC50: 16 µM (≈ 9.77 µg/mL)

## N=C(N)NC1C(O)[C@@H](CO)OC(OC2C(F)[C@H](O[C@H]3OC(CN)[C@@H](O)CC3N)C(N)C[C@H]2NC(=O)[C@@H](O)CCN)[C@@H]1O (stereo partly drawn) [ABX5006, Tobra-AHB-F-Gua]
[1]
  MIC50: 4 to 8 µM (≈ 2.45 to 4.9 µg/mL)

## N=C(NCCN)NC1C(O)[C@@H](CO)OC(OC2C(F)[C@H](O[C@H]3OC(CN)[C@@H](O)CC3N)C(N)C[C@H]2NC(=O)[C@@H](O)CCN)[C@@H]1O (stereo partly drawn) [ABX5020, Tobra-AHB-F-Gua-2-amino-ethyl]
[1]
  MIC50: 4 to 8 µM (≈ 2.62 to 5.25 µg/mL)

## NCC[C@H](O)C(=O)N[C@@H]1CC(N)[C@@H](O[C@H]2OC(CN)[C@@H](O)CC2N)[C@H](F)C1OC1O[C@H](CO)[C@@H](O)C(N)[C@H]1O (stereo partly drawn) [ABX5024, Tobra-AHB-F]
  MIC50: 16 to 32 µM

## CC(C)(C)CCNC(=N)NC1[C@@H](O)C(OC2[C@@H](F)[C@H](O[C@H]3OC(CN)[C@@H](O)CC3N)C(N)C[C@H]2NC(=O)[C@@H](O)CCN)O[C@H](CO)[C@H]1O (stereo partly drawn) [ABX5025, Tobra-AHB-F-Gua 2-tBu-ethyl]
[1]
  MIC50: 16 µM (≈ 11.1 µg/mL)

## N=C(NC[C@@H]1CCCN1)NC1[C@@H](O)C(OC2[C@@H](F)[C@H](O[C@H]3OC(CN)[C@@H](O)CC3N)C(N)C[C@H]2NC(=O)[C@@H](O)CCN)O[C@H](CO)[C@H]1O (stereo partly drawn) [ABX5026, Tobra-AHB-F-Gua (S) pyrrolidine-2-yl-methyl]
[1]
  MIC50: 32 µM (≈ 22.3 µg/mL)

## N=C(NCC1CC1)NC1[C@@H](O)C(OC2[C@@H](F)[C@H](O[C@H]3OC(CN)[C@@H](O)CC3N)C(N)C[C@H]2NC(=O)[C@@H](O)CCN)O[C@H](CO)[C@H]1O (stereo partly drawn) [ABX5027, Tobra-AHB-F-Gua cyclopropylmethyl]
[1]
  MIC50: 32 µM (≈ 21.3 µg/mL)

## N=C(NCCO)NC1[C@@H](O)C(OC2[C@@H](F)[C@H](O[C@H]3OC(CN)[C@@H](O)CC3N)C(N)C[C@H]2NC(=O)[C@@H](O)CCN)O[C@H](CO)[C@H]1O (stereo partly drawn) [ABX5029, Tobra-AHB-F-Gua 2-hydroxy-ethyl]
[1]
  MIC50: 64 µM (≈ 42 µg/mL)

## N=C(NCCCN)NC1[C@@H](O)C(OC2[C@@H](F)[C@H](O[C@H]3OC(CN)[C@@H](O)CC3N)C(N)C[C@H]2NC(=O)[C@@H](O)CCN)O[C@H](CO)[C@H]1O (stereo partly drawn) [ABX5030, Tobra-AHB-F-Gua-3-amino-propyl]
[1]
  MIC50: 32 µM (≈ 21.4 µg/mL)

## CNCCNC(=N)NC1[C@@H](O)C(OC2[C@@H](F)[C@H](O[C@H]3OC(CN)[C@@H](O)CC3N)C(N)C[C@H]2NC(=O)[C@@H](O)CCN)O[C@H](CO)[C@H]1O (stereo partly drawn) [ABX5038, Tobra-AHB-F-Gua 2-(methylamino)ethyl]
[1]
  MIC50: 16 µM (≈ 10.7 µg/mL)

## N=C(NC[C@@H]1CCNC1)NC1[C@@H](O)C(OC2[C@@H](F)[C@H](O[C@H]3OC(CN)[C@@H](O)CC3N)C(N)C[C@H]2NC(=O)[C@@H](O)CCN)O[C@H](CO)[C@H]1O (stereo partly drawn) [ABX5039, Tobra-AHB-F-Gua (R) pyrrolidine-3-ylmethyl]
[1]
  MIC50: 16 µM (≈ 11.1 µg/mL)

## N=C(NC[C@@H]1CNCCO1)NC1[C@@H](O)C(OC2[C@@H](F)[C@H](O[C@H]3OC(CN)[C@@H](O)CC3N)C(N)C[C@H]2NC(=O)[C@@H](O)CCN)O[C@H](CO)[C@H]1O (stereo partly drawn) [ABX5040, Tobra-AHB-F-Gua (S) morpholin-2-yl methyl]
[1]
  MIC50: 16 µM (≈ 11.4 µg/mL)

## N=C(NCCCO)NC1[C@@H](O)C(OC2[C@@H](F)[C@H](O[C@H]3OC(CN)[C@@H](O)CC3N)C(N)C[C@H]2NC(=O)[C@@H](O)CCN)O[C@H](CO)[C@H]1O (stereo partly drawn) [ABX5041, Tobra-AHB-F-Gua 3-hydroxy-propyl]
[1]
  MIC50: 4 to 8 µM (≈ 2.68 to 5.37 µg/mL)

## N=C(NC[C@H]1CCNC1)NC1[C@@H](O)C(OC2[C@@H](F)[C@H](O[C@H]3OC(CN)[C@@H](O)CC3N)C(N)C[C@H]2NC(=O)[C@@H](O)CCN)O[C@H](CO)[C@H]1O (stereo partly drawn) [ABX5042, Tobra-AHB-F-Gua (S) pyrrolidine-3-ylmethyl]
[1]
  MIC50: 8 µM (≈ 5.57 µg/mL)

## N=C(NC[C@H]1CNCCO1)NC1[C@@H](O)C(OC2[C@@H](F)[C@H](O[C@H]3OC(CN)[C@@H](O)CC3N)C(N)C[C@H]2NC(=O)[C@@H](O)CCN)O[C@H](CO)[C@H]1O (stereo partly drawn) [ABX5043, Tobra-AHB-F-Gua (R) morpholin-2-yl methyl]
[1]
  MIC50: 16 µM (≈ 11.4 µg/mL)

## N=C(N)NC1[C@@H](O)C(OC2[C@@H](F)[C@H](O[C@H]3OC(CNCCO)[C@@H](O)CC3N)C(N)C[C@H]2NC(=O)[C@@H](O)CCN)O[C@H](CO)[C@H]1O (stereo partly drawn) [ABX5045, 6N-2-hydroxy-ethyl-Tobra-AHB-F-Gua]
[1]
  MIC50: 8 to 16 µM (≈ 5.25 to 10.5 µg/mL)

## N=C(NCC1CCCO1)NC1[C@@H](O)C(OC2[C@@H](F)[C@H](O[C@H]3OC(CN)[C@@H](O)CC3N)C(N)C[C@H]2NC(=O)[C@@H](O)CCN)O[C@H](CO)[C@H]1O (stereo partly drawn) [ABX5046, Tobra-AHB-F-Gua tetrahydrofuran-2-yl methyl]
[1]
  MIC50: 8 to 16 µM (≈ 5.57 to 11.1 µg/mL)

## C[C@@H](N)CCNC(=N)NC1[C@@H](O)C(OC2[C@@H](F)[C@H](O[C@H]3OC(CN)[C@@H](O)CC3N)C(N)C[C@H]2NC(=O)[C@@H](O)CCN)O[C@H](CO)[C@H]1O (stereo partly drawn) [ABX5047, Tobra-AHB-F-Gua (R) 3-amino-butyl]
[1]
  MIC50: 2 to 4 µM (≈ 1.37 to 2.74 µg/mL)
